In patent US20090048214A1, “Methods for Treating Renal Tumors Using 2, 4-Pyrimidinediamine Drug and Prodrug Compounds” (RIGEL PHARMACEUTICALS, INC, priority 2006, published 2009):

Legend:
[1] = detailed in US2006/0211657 A1; cited from earlier work
[2] = test system: A498 renal carcinoma cells; assay: A498 renal carcinoma subcutaneous xenograft study; format: in vivo, NCR nu/nu female mice
Experimental: NCR nu/nu female mice (8-9 weeks old, Harlan Laboratories, Madison, Wis.) were injected subcutaneously on the right hind flank with 5×10^7 A498 renal carcinoma cells in a 50:50 mixture of cells in PBS and Matrigel® (Cat# 356234, LDEV negative, BD Biosciences, Boston, Mass.). Tumor growth was determined by measuring the tumor in two dimensions (L×W) with electronic calipers (Ultra Cal IV, Fred V Fowler Co, Newton, Mass.). Volume was calculated using Study Director Animal Study Management Software (Studylog Systems, South San Francisco, Calif.) as follows: V=(L×W^2)/2,where L and W are the tumor length and width, respectively. Animals were randomized by stratified tumor size and treatment was initiated when the average tumor size was approximately 82 mm^3 (Study Day 0, 17 days post-injection). Test compound was administered ad libitum in the feed as a formulation of 0, 0.5, 2, or 3 g Compound A per kg of AIN-76A rodent diet (Research Diets, Inc, New Brunswick, N.J.). Animals were weighed and tumors measured twice weekly from the day of cell injection to study termination.

[3] = test system: RXF-393 kidney tumor fragments; assay: RXF-393 renal carcinoma orthotopic xenograft study; format: in vivo, Nu/nu mice; conditions: for median tumor weight: following 16 days of treatment, vehicle 485 mg
Experimental: RXF-393 kidney tumor fragments were implanted intrarenally into Nu/nu mice. On days 5-20 post-implantation animals were fed the Research Diet chow containing Compound A at the following dose levels: 0 g/kg (control), 0.5 g/kg (expected dose 75 mg/kg/day), 2.0 g/kg (expected dose 300 mg/kg/day), or 3.0 g/kg (expected dose 450 mg/kg/day). Tumors were allowed to grow orthotopically, body weights were measured twice weekly, and the animals were sacrificed on Day 23. Both the implanted kidney and the unimplanted kidney were weighed, and the tumor weight is expressed as the difference in kidney weights for each animal.

## COc1cc(Nc2ncc(F)c(Nc3ccc4c(n3)N(COP(=O)(O)O)C(=O)C(C)(C)O4)n2)cc(OC)c1OC [Compound A]
[1]
  metabolism of prodrug in vivo: metabolize in vivo to the corresponding active 2,4-pyrimidinediamine compound, Compound 1
[2]; 0, 0.5, 2.0, 3.0 g Compound A/kg feed groups
  Mean body weights: not different among the groups
[2]; 0.5, 2.0, 3.0 g Compound A/kg feed
  effect on tumor growth, dose dependence: dose-dependent effect on tumor growth was observed
[2]; 2.0 g Compound A/kg feed, Day 23
  %T/C: 62%
[2]; 2.0 g Compound A/kg feed, by Day 23, control 665, p>0.05
  mean tumor volume: 485 mm^3
[2]; 3.0 g Compound A/kg feed ad libitum, after 24 days of treatment, vehicle 665, p<0.05
  mean tumor volume: 372 mm^3
[2]; 3.0 g Compound A/kg feed, after 24 days of treatment
  median change in tumor volume, treated relative to control (% T/C): 35%
[3]; high (3 g/kg) and mid (2 g/kg) dose groups, 16 days of treatment
  reduction in tumor weight vs vehicle: ~10 fold
[3]; high dose 3 g/kg food (450 mg/kg/dose), p<0.0001
  median tumor weight: 63 mg
[3]; low dose group (75 mg/kg/dose, 0.5 g Compound A/kg food)
  reduction in median tumor weight compared with vehicle: approximately 25%
[3]; mid dose 2 g/kg food (300 mg/kg/dose), p<0.0006
  median tumor weight: 74 mg
